Test results as given in paper PMC6164663, “Flavonoids as Putative Epi-Modulators: Insight into Their Binding Mode with BRD4 Bromodomains Using Molecular Docking and Dynamics” (Biomolecules, 2018).
pIC50: −log10 of the molar value.

Target: T1, BRD4 (Homo sapiens, UniProt O60885)
T1 construct: tandem (BD1 + BD2)
Test: AlphaScreen binding assay with H4 peptide ([…]) K5/[…] Ac, duplicate dose-response (IC50 […])
Conditions: read-out: DATA 2

O=c1cc(-c2ccc(O)c(-c3c(O)cc(O)c4c(=O)cc(-c5ccc(O)cc5)oc34)c2)oc2cc(O)cc(O)c12 [amentoflavone]
pIC50: 4.52
